Laboratory results reported in US7157452B2, “Substituted 4,9-dihydrocyclopenta{imn}phenanthridine-5-ones derivatives thereof and their uses” (MGI GP, Inc., priority 2001, dated 2007).
Where two headings read alike, the source gives them in different places.

Molecular target: T1, purified recombinant human PARP (Homo sapiens, UniProt P09874)
T1 construct: purchased Trevigan (Gaithersburg, Md.)
Assay: PARP enzyme assay with [3H]NAD, scintillation counting
Type: biochemical
Method: The reaction is initiated by incubating the mixture at 25° C. After 15 minutes of incubation, the reaction is terminated by adding 500 microliters of ice cold 20% (w/v) trichloroacetic acid. The precipitate formed is transferred onto a glass fiber filter (Packard Unifilter-GF/B) and washed three times with ethanol. After the filter is dried, the radioactivity is determined by scintillation counting.
Using the PARP assay described above, approximate IC50 (μM) values were obtained as shown in the following Table III, which also include specific embodiments of the compounds of the present invention: […]

[1] = Table III, read-out: approximate IC50

T1 sequence (P09874 whole entry): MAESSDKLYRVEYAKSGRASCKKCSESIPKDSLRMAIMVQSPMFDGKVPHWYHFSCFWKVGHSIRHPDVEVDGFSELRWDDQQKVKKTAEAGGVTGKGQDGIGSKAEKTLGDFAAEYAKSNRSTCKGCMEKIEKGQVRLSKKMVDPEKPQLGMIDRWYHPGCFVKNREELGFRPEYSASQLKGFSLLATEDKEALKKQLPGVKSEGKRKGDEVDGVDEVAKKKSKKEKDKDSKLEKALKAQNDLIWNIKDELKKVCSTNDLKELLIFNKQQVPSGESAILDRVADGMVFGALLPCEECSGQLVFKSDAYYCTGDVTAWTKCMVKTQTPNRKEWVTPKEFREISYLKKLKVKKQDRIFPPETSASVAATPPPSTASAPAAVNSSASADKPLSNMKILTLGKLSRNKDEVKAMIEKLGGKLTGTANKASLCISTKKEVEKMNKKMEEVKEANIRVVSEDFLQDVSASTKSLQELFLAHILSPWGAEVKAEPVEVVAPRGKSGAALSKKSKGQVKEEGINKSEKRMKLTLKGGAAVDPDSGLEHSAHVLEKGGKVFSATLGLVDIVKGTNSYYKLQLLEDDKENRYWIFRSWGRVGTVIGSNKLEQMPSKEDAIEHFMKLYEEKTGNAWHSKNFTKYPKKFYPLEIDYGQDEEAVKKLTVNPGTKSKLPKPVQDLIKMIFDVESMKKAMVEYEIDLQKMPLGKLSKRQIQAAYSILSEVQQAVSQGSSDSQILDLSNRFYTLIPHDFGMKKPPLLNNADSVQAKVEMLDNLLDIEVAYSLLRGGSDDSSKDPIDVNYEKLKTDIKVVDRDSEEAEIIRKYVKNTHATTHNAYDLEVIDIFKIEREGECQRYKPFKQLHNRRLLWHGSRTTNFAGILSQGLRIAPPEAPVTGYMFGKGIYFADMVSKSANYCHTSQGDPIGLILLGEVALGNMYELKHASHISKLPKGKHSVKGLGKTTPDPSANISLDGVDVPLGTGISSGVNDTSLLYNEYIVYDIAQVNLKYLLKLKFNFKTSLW

SMILES	IC50 [1] [nM]	IC50 (examples table, read-out: IC50) [nM]
CCOC(=O)C1CCCN(S(=O)(=O)c2ccc3[nH]c(=O)c4cccc5c4c3c2C5)C1 (stereo not shown) [Example 2, 1-(5-Oxo-5,9-dihydro-4H-cyclopenta[lmn]phenanthridine-1-sulfonyl)-piperidine-3-carboxylic acid ethyl ester]	137	137
O=c1[nH]c2ccc(S(=O)(=O)N3CCN(CC4CCCO4)CC3)c3c2c2c(cccc12)C3 (stereo not shown) [Example 3]	247	247
O=c1[nH]c2ccc(S(=O)(=O)NCCCc3ccccc3)c3c2c2c(cccc12)C3 [Example 4]	1130	1130
O=c1[nH]c2ccc(S(=O)(=O)NCCN3CCCC3)c3c2c2c(cccc12)C3 [Example 5]	89	89
O=c1[nH]c2ccc(S(=O)(=O)NCCCN3CCOCC3)c3c2c2c(cccc12)C3 [Example 6]	63	63
O=c1[nH]c2ccc(S(=O)(=O)N3CCN(c4ccc(C(F)(F)F)cc4)CC3)c3c2c2c(cccc12)C3 [Example 7]	269	269
O=c1[nH]c2ccc(S(=O)(=O)N3CCN(c4ccc(F)cc4)CC3)c3c2c2c(cccc12)C3 [Example 8]	335	335
O=c1[nH]c2ccc(S(=O)(=O)N3CCN(c4ccc(F)cc4F)CC3)c3c2c2c(cccc12)C3 [Example 9]	211	211
CN1CCN(NS(=O)(=O)c2ccc3[nH]c(=O)c4cccc5c4c3c2C5)CC1 [Example 10]	129	129
O=C(CNCCN1CCCC1)Nc1ccc2[nH]c(=O)c3cccc4c3c2c1C4 [Example 11]	49	49
CN1CCN(CCCNS(=O)(=O)c2ccc3[nH]c(=O)c4cccc5c4c3c2C5)CC1 [Example 12]	64	64
CCN(CC)CCNS(=O)(=O)c1ccc2[nH]c(=O)c3cccc4c3c2c1C4 [Example 13]	48	48
CCN(CC)CCCNS(=O)(=O)c1ccc2[nH]c(=O)c3cccc4c3c2c1C4 [Example 14]	91	91
O=c1[nH]c2ccc(S(=O)(=O)NCCc3ccccn3)c3c2c2c(cccc12)C3 [Example 15]	114	114
O=c1[nH]c2ccc(S(=O)(=O)NN3CCOCC3)c3c2c2c(cccc12)C3 [Example 16]	92	92
CN(C)CCN(C)S(=O)(=O)c1ccc2[nH]c(=O)c3cccc4c3c2c1C4 [Example 17]	154	154
CN(C)CCCN(C)S(=O)(=O)c1ccc2[nH]c(=O)c3cccc4c3c2c1C4 [Example 18]	110	110
CN1CCN(CCCNS(=O)(=O)c2ccc3[nH]c(=O)c4cccc5c4c3c2C5)CC1 [Example 19]	52	52
CCN(CC)CCNS(=O)(=O)c1ccc2[nH]c(=O)c3cccc4c3c2c1C4 [Example 20]	77	77
CN(C)CCCN1CCN(S(=O)(=O)c2ccc3[nH]c(=O)c4cccc5c4c3c2C5)CC1 [Example 21]	64	64
O=c1[nH]c2ccc(S(=O)(=O)N3CCN(CCN4CCCC4)CC3)c3c2c2c(cccc12)C3 [Example 22]	115	115
CN1CCC(N2CCN(S(=O)(=O)c3ccc4[nH]c(=O)c5cccc6c5c4c3C6)CC2)CC1 [Example 23]	166	166
O=c1[nH]c2ccc(S(=O)(=O)N3CCN(c4ccncc4)CC3)c3c2c2c(cccc12)C3 [Example 24]	929	929
CN1CCC(CN2CCN(S(=O)(=O)c3ccc4[nH]c(=O)c5cccc6c5c4c3C6)CC2)CC1 [Example 25]	165	165
O=c1[nH]c2ccc(S(=O)(=O)N3CCN(CCN4CCCCC4)CC3)c3c2c2c(cccc12)C3 [Example 26]	314	314
O=c1[nH]c2ccc(S(=O)(=O)N3CCN(CCN4CCOCC4)CC3)c3c2c2c(cccc12)C3 [Example 27]	634	634
O=c1[nH]c2ccc(S(=O)(=O)N3CCN(Cc4ccncc4)CC3)c3c2c2c(cccc12)C3 [Example 28]	406	406

SMILES	IC50 [1] [nM]	IC50 (examples table, read-out: IC50) [nM]
CN(C)CCCN1CCN(S(=O)(=O)c2ccc3[nH]c(=O)c4cccc5c4c3c2C5)CC1 [Example 29]	109	109
O=c1[nH]c2ccc(S(=O)(=O)N3CCN(CCN4CCCC4)CC3)c3c2c2c(cccc12)C3 [Example 30]	264	264
CN1CCN(CC(=O)Nc2ccc3[nH]c(=O)c4cccc5c4c3c2C5)CC1 [Example 31, 2-(4-Methyl-piperazin-1-yl)-N-(5-oxo-5,9-dihydro-4H-cyclopenta[lmn]phenanthridin-1-yl)-acetamide]	45	45
CC(=O)N1CCN(CC(=O)Nc2ccc3[nH]c(=O)c4cccc5c4c3c2C5)CC1 [Example 32, 2-(4-Acetyl-piperazin-1-yl)-N-(5-oxo-5,9-dihydro-4H-cyclopenta[lmn]phenanthridin-1-yl)-acetamide]	36	36
O=C(CN1CCN(Cc2ccccc2)CC1)Nc1ccc2[nH]c(=O)c3cccc4c3c2c1C4 [Example 33]	218	218
O=C(CN1CCOCC1)Nc1ccc2[nH]c(=O)c3cccc4c3c2c1C4 [Example 34]	58	58
O=C(CN1CCN(CC2CCCO2)CC1)Nc1ccc2[nH]c(=O)c3cccc4c3c2c1C4 (stereo not shown) [Example 35]	193	193
O=C(CNCCCc1ccccc1)Nc1ccc2[nH]c(=O)c3cccc4c3c2c1C4 [Example 36]	188	188
O=C(CNCCCN1CCOCC1)Nc1ccc2[nH]c(=O)c3cccc4c3c2c1C4 [Example 37]	178	178
O=C(CNCCN1CCCCC1)Nc1ccc2[nH]c(=O)c3cccc4c3c2c1C4 [Example 38]	175	175
O=C(CN1CCN(c2ccc(C(F)(F)F)cc2)CC1)Nc1ccc2[nH]c(=O)c3cccc4c3c2c1C4 [Example 39]	219	219
O=C(CN1CCN(c2ccc(F)cc2)CC1)Nc1ccc2[nH]c(=O)c3cccc4c3c2c1C4 [Example 40]	230	230
O=C(CN1CCN(c2ccc(F)cc2F)CC1)Nc1ccc2[nH]c(=O)c3cccc4c3c2c1C4 [Example 41]	336	336
O=C(CN1CCN(c2ccccn2)CC1)Nc1ccc2[nH]c(=O)c3cccc4c3c2c1C4 [Example 42]	158	158
O=C(CN1CCC(N2CCCC2)CC1)Nc1ccc2[nH]c(=O)c3cccc4c3c2c1C4 [Example 44]	94	94
CCN(CC)CCNCC(=O)Nc1ccc2[nH]c(=O)c3cccc4c3c2c1C4 [Example 45]	133	133
CCN(CC)CCCNCC(=O)Nc1ccc2[nH]c(=O)c3cccc4c3c2c1C4 [Example 46]	118	118
O=C(CNCCN1CCOCC1)Nc1ccc2[nH]c(=O)c3cccc4c3c2c1C4 [Example 47]	457	457
CN(C)CCCN(C)CC(=O)Nc1ccc2[nH]c(=O)c3cccc4c3c2c1C4 [Example 48]	144	144
CN(C)CCCN1CCN(CC(=O)Nc2ccc3[nH]c(=O)c4cccc5c4c3c2C5)CC1 [Example 49]	72	72
CN(C)CCN1CCN(CC(=O)Nc2ccc3[nH]c(=O)c4cccc5c4c3c2C5)CC1 [Example 50]	115	115
CN1CCCC(CN2CCN(CC(=O)Nc3ccc4[nH]c(=O)c5cccc6c5c4c3C6)CC2)C1 (stereo not shown) [Example 51]	178	178
CN1CCC(CN2CCN(CC(=O)Nc3ccc4[nH]c(=O)c5cccc6c5c4c3C6)CC2)CC1 [Example 52]	96	96
CN1CCC(N2CCN(CC(=O)Nc3ccc4[nH]c(=O)c5cccc6c5c4c3C6)CC2)CC1 [Example 53]	119	119
O=C(CN1CCN(Cc2ccncc2)CC1)Nc1ccc2[nH]c(=O)c3cccc4c3c2c1C4 [Example 54]	267	267
O=C(CN1CCN(CCN2CCOCC2)CC1)Nc1ccc2[nH]c(=O)c3cccc4c3c2c1C4 [Example 55]	558	558
